Laboratory results published in patent US20210038589A1, “USES, COMPOSITIONS AND METHODS” (priority 2018, published 2021).

Test system: pyramidal cell action potentials in hippocampal area CA3
Assay: Concomitant LFP and single unit recordings: AP firing and spike-phase coupling after Aβ
Assay type: cell-based, mouse
Conditions: inhibitor applied after the application of Aβ
Protocol: Having studied the synaptic effects of two T-type Ca^2+ channel inhibitors, we then proceeded to examine their ability to modulate the synchronization of hippocampal neuronal activity. We performed concomitant recordings of field potentials and single unit recordings to analyze the synchronization of action potentials with the phase of the gamma oscillations (27). […] To determine the spike phase of PC during a gamma oscillation, spike-phase coupling was calculated. […] This is observed as a slight shift to the right in the AP-phase distribution (7A,D). The desynchronization of PC activity is also evidenced by the reduction of the summation vector length (Pmzd: control: 0.3764±0.048, Aβ: 0.226±0.05, n=7, p=0.0078, FIG. 7B; Penfl: control: 0.3976±0.054, Aβ: 0.2661±0.05566, n=8, p=0.0078, FIG. 7E), which is represented by the change in the length of the arrow in FIGS. 7A and D.
Patch-clamp (whole-cell) recordings were performed from visually identified CA3 PC using The SliceScope (Scientifica, UK). Action Potentials (APs) were recorded from pyramidal cells in area CA3 as single units (submerged chamber) using standard ACSF-containing patch electrodes. For EPSC recordings (Vh=−70 mV) a potassium-based intracellular solution was used (in mM): 122.5 K-gluconate, 17.5 KCl, 4 ATPNa, 0.4 GTPNa, 10 HEPES, 0.2 EGTA, 2 MgCl, set to pH 7.2-7.3 with KOH, osmolarity 270-280 mOsm. For IPSC recordings (Vh=0 mV) a cesium-based intracellular solution was used (in mM): 140 CsMeSO4, 10 HEPES, 0.2 EGTA, 4 MGCl, 2 ATPNa, 0.2 GTPNa, 5 QX-314, set to pH 7.2-7.4 with CsOH, osmolarity 270-280 mOsm.
Spike phase-coupling analysis was performed on concomitant LFP recordings and single unit recordings using MATLAB custom-written routines in order to relate the PC spiking activity to ongoing gamma oscillations (48). To do this LFP recordings were pre-processed using a band pass filter set to 20-60 Hz (highpass: RC-single pole, lowpass: RC-single pole) using Clampfit 10.7. AP were detected using an amplitude threshold and the instantaneous phase of gamma oscillation was calculated using a Hilbert transform in order to determine the phase-angle at which each action potential occurred during ongoing oscillations. Phase-angles and gamma oscillations-phases were represented in polar plots and expressed in radians with the peak of the oscillation cycle corresponding to 0π and the valley corresponding to ±π in the polar plots. In order to search for the synchronization level of AP firing, AP phase-angles frequency-distribution were normalized, a Gaussian function was fitted and the half-width at half-maximum was then calculated as a measure of the synchronization level: the more AP are fired on the same phase-angle the more synchronized the neuronal activity is. The preferred phase-angle was calculated by averaging the AP phase-angles distribution of all the experiments and is represented by an arrow in the polar-plots. To test whether neurons fired in a phase-related manner all concomitant recordings were tested for circular uniformity using Rayleigh's test. Only recording with p values below 0.05 were considered for the analysis.

Row | Structure (SMILES) | AP count (AP firing frequency) | preferred phase angle | summation vector length
1 | OC1(c2ccc(Cl)c(C(F)(F)F)c2)CCN(CCCC(c2ccc(F)cc2)c2ccc(F)cc2)CC1 [Penfluridol] | 1.79±0.43 Hz | 4.09±0.2 radians | 0.355±0.05
2 | O=c1[nH]c2ccccc2n1C1CCN(CCCC(c2ccc(F)cc2)c2ccc(F)cc2)CC1 [Pimozide] | 2.23±0.51 Hz | 4.180±0.15 radians | 0.335±0.072
